Test results: US20240197733A1, “A GABA RECEPTOR MODULATOR FOR USE IN THE TREATMENT OF PAIN” (SANIONA A/S, priority 2021, published 2024)

Tested on: electrocutaneous stimulation-induced facial pain rodent model
Assay: ES-induced facial pain model, cold thermal allodynia (acetone test), prophylactic and acute treatment
Format: in vivo, Sprague-Dawley rats
Conditions: for development of cold allodynia vs vehicle: day 9 at 0 time
Description: Cold Thermal threshold was assessed by measuring each rat's facial withdrawal latency (seconds) in response to a single 10 uL drop of acetone directly on the depilated and stimulated rat cheek. Cutoff was set at 60 seconds. Facial withdrawal response criteria were as following: burrowing head, shaking of head back-and-forth, excessive blinking, turning head away from experimenter. Unless stated otherwise, the same materials, methods, and provisions of Example 1 were applied to Example 2. The required quantity of the compound is weighed and dissolved in 100% DMSO in a volume amounting to 5% of the total volume while placed on a stirrer. The weight of the compounds refers to the free base weights. Once the solution becomes clear/transparent, the remaining volume of the vehicle is added (30% HPBCD prepared in MQ water) to final concentrations of 0.03, 0.1, and 0.3 mg/ml for Compound 1. The solutions are kept on a stirrer before- and during administration of the compounds to the animals. The experimenter assessing the behavioral responses to drug administration is blinded to the drug treatment to the animals. Each treatment group is coded according the scheme below: • A. Vehicle (5% DMSO+30% HPBCD): 10 ml/kg • B. Compound 1: 0.3 mg/kg • C. Compound 1: 1 mg/kg • D. Compound 1: 3 mg/kg • F. Compound 1: 3 mg/kg—acute Second baseline measurement was carried out similarly to day 1, For each animal, the average of the two baseline nociceptive measurements was calculated within each pain modality (mechanical, heat- and cold pain), and used as baseline (“Baseline” point on figures). Then all rats in the above respective group (A-D) are given treated as mentioned. Group F received vehicle treatment. Treatment is continued once daily to each group same as Day 2 All rats were treated with respective treatment as per day 3-7. After 1 hr of treatment, each rat was subjected to 1 hr of electrocutaneous stimulation at depilated cheek (0.4 mA intensity, 10 ms duration, 1 s inter-pulse interval). Similar to day 1- and 2, all rats were acclimatized to test equipment followed by measurements of ES-induced facial mechanical- heat- and cold allodynia (“0” time point on figures). After measurement of hypersensitivity threshold, rats from group A-D received the vehicle and three doses of Compound 1 as mentioned above while group F received single acute dose of 3 mg/kg of Compound 1. Treatment effects on pain thresholds were evaluated 2- and 4 hours after administration by assessing mechanical- (Von Frey) and thermal (heat and cold) withdrawal threshold.

For COc1ncc(-c2cccc(-n3cnc4cc(C(C)(C)O)cnc43)c2)c(OC)n1 [Compound 1, 2-(3-(3-(2,4-dimethoxypyrimidin-5-yl)phenyl)-3H-imidazo[4,5-b]pyridin-6-yl)propan-2-ol], the “effect on established cold allodynia vs vehicle” value (from here on “effect … vs vehicle”) (acute 3 mg/kg po on day 9, p<0.001 and p<0.0001 post 2 and 4 hrs) was “reversed the mechanical allodynia”, the “effect … vs vehicle” value (prophylactic 0.3 mg/kg po plus additional dose on day 9, p>0.05 post 2 hrs, p<0.01 post 4 hrs) was “reversed the cold allodynia dose dependently” and the “development of cold allodynia vs vehicle” value (prophylactic 1 mg/kg po once daily for 7 days, p<0.05 vs vehicle) was “significantly reduced the development of cold allodynia”. For the same compound, the “effect … vs vehicle” value (prophylactic 1 mg/kg po plus additional dose on day 9, p<0.01 post 2 hrs, p<0.0001 post 4 hrs) was “reversed the cold allodynia dose dependently”, the “development of cold allodynia vs vehicle” value (prophylactic 3 mg/kg po once daily for 7 days, p<0.0001 vs vehicle) was “significantly reduced the development of cold allodynia” and the “effect … vs vehicle” value (prophylactic 3 mg/kg po plus additional dose on day 9, p<0.0001 post 2 hrs and post 4 hrs) was “reversed the cold allodynia dose dependently”.
